{
  "source": "patent US20050020643A1",
  "about": "“Pyridinyl amides and compositions thereof for use as fungicides” (priority 2002, published 2005)",
  "format_in_all_cases": "in vivo",
  "key": {"Plasmopara viticola [1]": {"system": "Plasmopara viticola", "assay": "Test E: preventive control of grape downy mildew on grape seedlings", "settings": "sprayed day before inoculation, rate not given"}, "[2]": {"system": "Erysiphe graminis f. sp. tritici", "assay": "Test A: preventive control of wheat powdery mildew on wheat seedlings", "set-up": "concentration or dose not given beside the values", "settings": "sprayed day before inoculation, rated after 7 days, rate not given"}, "Phytophthora infestans [3]": {"system": "Phytophthora infestans", "assay": "whole plant or invertebrate", "settings": "for Test F disease control rating: 100 g/ha on potato seedlings, sprayed day after inoculation; for pest or weed control at 100 g/ha: Phytophthora infestans, in Solanum tuberosum, 120 h, read-out: Test F disease control rating"}, "Phytophthora infestans [4]": {"system": "Phytophthora infestans", "settings": "tomato (or potato) seedlings, sprayed day before inoculation; rate not given"}, "Plasmopara viticola [5]": {"system": "Plasmopara viticola", "assay": "Test G: curative control of grape downy mildew on grape seedlings (sprayed after inoculation)", "settings": "sprayed day after inoculation, rate not given"}},
  "data": [
    {"smiles": "O=C(NCc1ncc(Br)cc1Br)c1c(Cl)ccnc1Cl", "note": "[Compound 17]", "values": [
      {"measurement": "Test E disease control rating", "setting": "Plasmopara viticola [1]", "result": 99, "unit": "%"},
      {"measurement": "Test A disease control rating", "setting": "[2]", "result": 0, "unit": "%"},
      {"measurement": "Test F disease control rating", "setting": "Phytophthora infestans [3]", "result": 73, "unit": "%"},
      {"measurement": "Test D disease control rating", "setting": "Phytophthora infestans [4]", "result": 100, "unit": "%"},
      {"measurement": "Test G disease control rating", "setting": "Plasmopara viticola [5]", "result": 98, "unit": "%"}
    ]},
    {"smiles": "Cc1cc(Cl)c(C(=O)NCc2ncc(Br)cc2Br)c(Cl)n1", "note": "[Compound 18]", "values": [
      {"measurement": "Test E disease control rating", "setting": "Plasmopara viticola [1]", "result": 100, "unit": "%"},
      {"measurement": "Test A disease control rating", "setting": "[2]", "result": 0, "unit": "%"},
      {"measurement": "Test F disease control rating", "setting": "Phytophthora infestans [3]", "result": 77, "unit": "%"},
      {"measurement": "Test D disease control rating", "setting": "Phytophthora infestans [4]", "result": 100, "unit": "%"},
      {"measurement": "Test G disease control rating", "setting": "Plasmopara viticola [5]", "result": 100, "unit": "%"}
    ]},
    {"smiles": "Cc1cc(Cl)c(C(=O)NCc2ncc(Cl)cc2Cl)c(Cl)n1", "note": "[Compound 19, 2,4-Dichloro-N-[(3,5-dichloro-2-pyridinyl)methyl]-6-methyl-3-pyridinecarboxamide]", "values": [
      {"measurement": "Test E disease control rating", "setting": "Plasmopara viticola [1]", "result": 100, "unit": "%"},
      {"measurement": "Test A disease control rating", "setting": "[2]", "result": 0, "unit": "%"},
      {"measurement": "pest or weed control at 100 g/ha", "setting": "Phytophthora infestans [3]", "result": 0, "unit": "%"},
      {"measurement": "Test D disease control rating", "setting": "Phytophthora infestans [4]", "result": 99, "unit": "%"},
      {"measurement": "Test G disease control rating", "setting": "Plasmopara viticola [5]", "result": 100, "unit": "%"}
    ]},
    {"smiles": "Cc1cc(Cl)c(C(=O)NC(C)c2ncc(Cl)cc2Cl)c(Cl)n1", "note": "(stereo not shown) [Compound 20, 2,4-Dichloro-N-[1-(3,5-dichloro-2-pyridinyl)ethyl]-6-methyl-3-pyridinecarboxamide]", "values": [
      {"measurement": "Test E disease control rating", "setting": "Plasmopara viticola [1]", "result": 100, "unit": "%"},
      {"measurement": "Test A disease control rating", "setting": "[2]", "result": 0, "unit": "%"},
      {"measurement": "pest or weed control at 100 g/ha", "setting": "Phytophthora infestans [3]", "result": 53, "unit": "%"},
      {"measurement": "Test D disease control rating", "setting": "Phytophthora infestans [4]", "result": 100, "unit": "%"},
      {"measurement": "Test G disease control rating", "setting": "Plasmopara viticola [5]", "result": 100, "unit": "%"}
    ]},
    {"smiles": "COc1cnc(C(C)NC(=O)c2c(Cl)cc(C)nc2Cl)c(Cl)c1", "note": "(stereo not shown) [Compound 21]", "values": [
      {"measurement": "Test E disease control rating", "setting": "Plasmopara viticola [1]", "result": 100, "unit": "%"},
      {"measurement": "Test A disease control rating", "setting": "[2]", "result": 0, "unit": "%"},
      {"measurement": "Test F disease control rating", "setting": "Phytophthora infestans [3]", "result": 53, "unit": "%"},
      {"measurement": "Test D disease control rating", "setting": "Phytophthora infestans [4]", "result": 99, "unit": "%"},
      {"measurement": "Test G disease control rating", "setting": "Plasmopara viticola [5]", "result": 77, "unit": "%"}
    ]},
    {"smiles": "COc1cnc(C(C)NC(=O)c2c(Cl)ccnc2Cl)c(Cl)c1", "note": "(stereo not shown) [Compound 22]", "values": [
      {"measurement": "Test E disease control rating", "setting": "Plasmopara viticola [1]", "result": 100, "unit": "%"},
      {"measurement": "Test A disease control rating", "setting": "[2]", "result": 0, "unit": "%"},
      {"measurement": "Test F disease control rating", "setting": "Phytophthora infestans [3]", "result": 98, "unit": "%"},
      {"measurement": "Test D disease control rating", "setting": "Phytophthora infestans [4]", "result": 100, "unit": "%"},
      {"measurement": "Test G disease control rating", "setting": "Plasmopara viticola [5]", "result": 94, "unit": "%"}
    ]},
    {"smiles": "CC(NC(=O)c1c(Cl)ccnc1Cl)c1ncc(Br)cc1I", "note": "(stereo not shown) [Compound 23]", "values": [
      {"measurement": "Test E disease control rating", "setting": "Plasmopara viticola [1]", "result": 100, "unit": "%"},
      {"measurement": "Test A disease control rating", "setting": "[2]", "result": 0, "unit": "%"},
      {"measurement": "Test F disease control rating", "setting": "Phytophthora infestans [3]", "result": 98, "unit": "%"},
      {"measurement": "Test D disease control rating", "setting": "Phytophthora infestans [4]", "result": 100, "unit": "%"},
      {"measurement": "Test G disease control rating", "setting": "Plasmopara viticola [5]", "result": 96, "unit": "%"}
    ]},
    {"smiles": "O=C(NCc1ncc(Br)cc1Cl)c1c(I)ccnc1Cl", "note": "[Compound 24]", "values": [
      {"measurement": "Test E disease control rating", "setting": "Plasmopara viticola [1]", "result": 100, "unit": "%"},
      {"measurement": "Test A disease control rating", "setting": "[2]", "result": 0, "unit": "%"},
      {"measurement": "Test F disease control rating", "setting": "Phytophthora infestans [3]", "result": 0, "unit": "%"},
      {"measurement": "Test D disease control rating", "setting": "Phytophthora infestans [4]", "result": 100, "unit": "%"},
      {"measurement": "Test G disease control rating", "setting": "Plasmopara viticola [5]", "result": 84, "unit": "%"}
    ]},
    {"smiles": "CC(NC(=O)c1c(I)ccnc1Cl)c1ncc(Br)cc1Cl", "note": "(stereo not shown) [Compound 25]", "values": [
      {"measurement": "Test E disease control rating", "setting": "Plasmopara viticola [1]", "result": 100, "unit": "%"},
      {"measurement": "Test A disease control rating", "setting": "[2]", "result": 0, "unit": "%"},
      {"measurement": "Test F disease control rating", "setting": "Phytophthora infestans [3]", "result": 0, "unit": "%"},
      {"measurement": "Test D disease control rating", "setting": "Phytophthora infestans [4]", "result": 100, "unit": "%"},
      {"measurement": "Test G disease control rating", "setting": "Plasmopara viticola [5]", "result": 72, "unit": "%"}
    ]},
    {"smiles": "O=C(NCc1ncc(Cl)cc1Cl)c1c(I)ccnc1Cl", "note": "[Compound 26]", "values": [
      {"measurement": "Test E disease control rating", "setting": "Plasmopara viticola [1]", "result": 81, "unit": "%"},
      {"measurement": "Test A disease control rating", "setting": "[2]", "result": 0, "unit": "%"},
      {"measurement": "Test F disease control rating", "setting": "Phytophthora infestans [3]", "result": 0, "unit": "%"},
      {"measurement": "Test D disease control rating", "setting": "Phytophthora infestans [4]", "result": 100, "unit": "%"},
      {"measurement": "Test G disease control rating", "setting": "Plasmopara viticola [5]", "result": 99, "unit": "%"}
    ]},
    {"smiles": "CC(NC(=O)c1c(I)ccnc1Cl)c1ncc(Cl)cc1Cl", "note": "(stereo not shown) [Compound 27]", "values": [
      {"measurement": "Test E disease control rating", "setting": "Plasmopara viticola [1]", "result": 100, "unit": "%"},
      {"measurement": "Test A disease control rating", "setting": "[2]", "result": 0, "unit": "%"},
      {"measurement": "Test F disease control rating", "setting": "Phytophthora infestans [3]", "result": 0, "unit": "%"},
      {"measurement": "Test D disease control rating", "setting": "Phytophthora infestans [4]", "result": 100, "unit": "%"},
      {"measurement": "Test G disease control rating", "setting": "Plasmopara viticola [5]", "result": 100, "unit": "%"}
    ]},
    {"smiles": "CC(NC(=O)c1c(Br)ccnc1Cl)c1ncc(Br)cc1Cl", "note": "(stereo not shown) [Compound 28]", "values": [
      {"measurement": "Test E disease control rating", "setting": "Plasmopara viticola [1]", "result": 100, "unit": "%"},
      {"measurement": "Test A disease control rating", "setting": "[2]", "result": 0, "unit": "%"},
      {"measurement": "Test F disease control rating", "setting": "Phytophthora infestans [3]", "result": 100, "unit": "%"},
      {"measurement": "Test D disease control rating", "setting": "Phytophthora infestans [4]", "result": 99, "unit": "%"},
      {"measurement": "Test G disease control rating", "setting": "Plasmopara viticola [5]", "result": 100, "unit": "%"}
    ]},
    {"smiles": "Cc1ccnc(Br)c1C(=O)NC(C)c1ncc(Br)cc1Cl", "note": "(stereo not shown) [Compound 29]", "values": [
      {"measurement": "Test E disease control rating", "setting": "Plasmopara viticola [1]", "result": 100, "unit": "%"},
      {"measurement": "Test A disease control rating", "setting": "[2]", "result": 0, "unit": "%"},
      {"measurement": "Test F disease control rating", "setting": "Phytophthora infestans [3]", "result": 57, "unit": "%"},
      {"measurement": "Test D disease control rating", "setting": "Phytophthora infestans [4]", "result": 99, "unit": "%"},
      {"measurement": "Test G disease control rating", "setting": "Plasmopara viticola [5]", "result": 94, "unit": "%"}
    ]},
    {"smiles": "CC(NC(=O)c1c(I)ccnc1Cl)c1ncc(Br)cc1Br", "note": "(stereo not shown) [Compound 30]", "values": [
      {"measurement": "Test E disease control rating", "setting": "Plasmopara viticola [1]", "result": 100, "unit": "%"},
      {"measurement": "Test A disease control rating", "setting": "[2]", "result": 0, "unit": "%"},
      {"measurement": "Test F disease control rating", "setting": "Phytophthora infestans [3]", "result": 44, "unit": "%"},
      {"measurement": "Test D disease control rating", "setting": "Phytophthora infestans [4]", "result": 100, "unit": "%"},
      {"measurement": "Test G disease control rating", "setting": "Plasmopara viticola [5]", "result": 93, "unit": "%"}
    ]}
  ]
}
